Several values for one entry are separate records, joined by “and”; a condition that tells them apart may be missing. Equal values may be shown once.
Legend:
[1] = target: T1, MYC-CREB-ZIP / FLAG-CRTC2 interaction (Homo sapiens, UniProt P16220); assay: Immunoprecipitation of FLAG-CRTC2-WT with MYC-CREB-ZIP fragment; format: biochemical; conditions: for Relative FLAG/MYC in MYC-IP fraction: Fig 3c replicates, FSK +
T1 construct: expressed in transfected cells; host or cells: HEK293
T1 sequence (P16220 269-327 limits assumed): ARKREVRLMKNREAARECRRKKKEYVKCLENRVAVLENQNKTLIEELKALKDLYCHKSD
Text: Fig. 3 APC inhibits CRTC2 interacting with CREB-ZIP and reduces acetyltransferase activity of CBP by binding with CREB protein directly. a Isothermal titration calorimetry (ITC) of HIS-CREB protein solution titrated into APC solution. The bottom solid line represents a nonlinear least-squares fitted by a single-site binding model. One of two independent experiments is shown here. b IC50 of APC inhibitory activity detected by CREB–CRTC2 two-hybrid assay in HEK293T cells (n = 3 per treatment, data are represented as mean ± SEM). One of three independent experiments is shown here. c Immunoprecipitation analysis of FLAG-CRTC2-WT recovered by anti-MYC antibody from HEK293 cells co-transfected with plasmids for a Myc-Creb-Zip fragment and the FLAG-Crtc2-Wt, stimulated by FSK (10 nM) for 2-h before harvest. APC (1–10 μM) was included in immunoprecipitation mixtures as indicated. Top represents one of three independent experiments, and the relative gray density of FLAG normalized to MYC in MYC-IP- factions is shown as a bar graph (bottom, n = 3). Data are represented as mean ± SEM; P values were determined by one-way ANOVA followed Dunnett’s multiple comparisons test. d Immunoblotting analysis of the acetyltransferase activity of CBP. The protein levels of H3K27ac and total Histone H3 were determined using specific antibodies from HEK293 cell lysate overexpressing HA-Cbp plasmid. Pretreatment with trichostatin (TSA, 0.5 μM) for 1 h prior to incubation with APC (2, 10 μM) for another 2-h. The top represents one of three independent experiments, and the relative gray density of H3K27ac normalized to total Histone H3 in cell lysate is shown as a bar graph (bottom, n = 3). Data are represented as mean ± SEM; P values were determined by one-way ANOVA followed Dunnett’s multiple comparisons test. ns, P > 0.05; *P < 0.05; **P < 0.01. Sources data for this figure are provided as source data file.

[2] = test system: G6pc promoter (G6p-Luc) in the liver; assay: Live imaging of hepatic G6p-Luc reporter; format: in vivo, mouse
Text: Complete DNA sequences encoding human Creb and Crtc2 were cloned in the plasmids psc811 and psc804 to express BD-CREB and VP16AD-CRTC2 recombined proteins, respectively. GAL4-luciferase and RSV (Rous Sarcoma Virus)-Renilla were constructed using the pGL3 plasmid. pGEX5X-1 and pET28C were used to construct plasmids for GST- and HIS-tagged proteins expression, respectively. Adenoviruses encoding Ad-HA-Crtc2, Ad-GFP, and Ad-RSV-β-Gal (galactosidase) have been described previously. For infecting primary hepatocytes, 0.5–1 MOI adenovirus was employed. For live imaging experiments, 10^8 plaques forming units (pfu) Ad-G6P-Luc and 5 × 10^7 pfu Ad-RSV-β-gal adenovirus were delivered to mice by tail vein injection. Mice were then imaged on day 3–5 after adenovirus delivery.
After two days of tail intravenously delivery of Ad-G6p-Luc (10^8 pfu) and Ad-RSV-β-Gal (5 × 10^7 pfu) adenoviruses, mice were orally administered propolis or i.p. injected with APC one dose per day for another 3 days. After 16 h fasting, mice were anesthetized using gaseous isoflurane (Abbott), were i.p. injected with 100 mg/kg sterile firefly D-luciferin (Biosynth AG), and 15 min later, imaged by IVIS-100 Imaging System and analyzed with Living Image Software (Xenogen). Liver lysates were prepared to determine β-Gal activity. Luciferase activity detected for each mouse was normalized to the β-Gal expression in the liver.

tissue protein levels = assay: Immunoblotting of tissue proteins in treated mice; format: in vivo, mouse; conditions: for Relative LXRa/ACTIN, Mean Diff. (VEH vs. treated) / Relative LXRa/ACTIN, Mean 2 (group mean) / Relative LXRa/ACTIN: Figure 7h; for Relative LXRa/ACTIN, Mean 2 (group mean): N2 = 4; for Relative LXRa/ACTIN: single replicates
Experimental: Immunoblotting and immunoprecipitation assays were performed as previously described, with antibodies recognizing CREB, Ser133-P-CREB, AMPK, P-AMPK, AKT, P-AKT (Cell Signaling), PGC-1α (Merck), CRTC2 (Calbiochem), PCK1 (Santa Cruz), SREBP1 (Santa Cruz), SREBP2 (BD), HA (Convance), LXRα (Santa Cruz), FLAG (Sigma), GST (Covance), HIS (Abmart), GAPDH (AOGMA), α-TUBULIN (Abmart), β-ACTIN (Abmart), and other antibodies (Supplementary Table 3). For immunostaining assays, primary cultured hepatocytes seeded on coverslips were fixed with 4% paraformaldehyde for 20 min, permeabilized with 0.3% Triton X-100 in PBS, and then blocked by 5% normal goat serum and 0.3% Triton X-100 in PBS, followed by incubation with anti-CREB (1:1000), anti-P-CREB (1:1000), or anti-HA (1:3000) antibodies for 1 h at 4 °C. Slides were then washed, and after washing, slides were incubated with fluorochrome-conjugated secondary antibodies (Invitrogen). Slides were then washed and mounted with Vectashield mounting media containing 4, 6-diamidino-2-phenylindole (DAPI).

[3] = Figure 6b right, N=4, VEH mean 1
[4] = Figure 6b right, individual animals, relative to VEH
[5] = Figure 8c, relative protein in DIO liver, individual samples
[6] = db/db mice, liver, group mean, N=3, VEH mean 1
[7] = db/db mice, liver, individual mouse
[8] = liver of DIO mice, individual samples, n=3
[9] = liver, CRTC2KO mice, drug minus VEH
[10] = liver, WT mice, group mean, N=4

Structure (SMILES): CC(C)=CCc1cc(C=CC(=O)O)cc(CC=C(C)C)c1O [APC, 3,5-diprenyl-4-hydroxycinnamic acid]
- FLAG-CRTC2 binding with MYC-CREB-ZIP domain ([1]; APC 1–10 μM): inhibited
- Relative FLAG/MYC in MYC-IP fraction ([1]; APC 1 uM): 3.874 and 3.872 and 3.786
- Relative FLAG/MYC in MYC-IP fraction ([1]; APC 5 uM): 3.592 and 3.454 and 3.26
- Relative FLAG/MYC in MYC-IP fraction ([1]; APC 10 uM): 2.4146 and 2.393 and 2.225
- G6P-Luc reporter activity in the livers ([2]; DIO mice, i.p. 20 mg/kg daily, 3 days): substantially decreased
- Relative G6P-LUC activity, folds (mean of column B) ([2]; Figure 8a right, group mean, n=5, VEH mean 0.996): 0.402 folds
- Relative G6P-LUC activity, folds ([2]; Figure 8a right, individual mice, vs VEH): 0.6379 folds and 0.1281 folds and 0.5105 folds and 0.3399 folds and 0.3902 folds
- hepatic protein levels of PCK1 and PGC-1α (tissue protein levels; DIO and db/db mice): decreased
- accumulation of mature SREBP proteins in the liver (tissue protein levels; DIO mice): reducing
- protein levels of LXRα and SREBP1 in the liver (tissue protein levels; DIO mice): decreased
- SREBP1/GAPDH, Predicted (LS) mean (tissue protein levels; [3]): 0.3097
- SREBP2/GAPDH, Predicted (LS) mean (tissue protein levels; [3]): 0.1841
- Relative SREBP1/2 protein levels: SREBP1/GAPDH (tissue protein levels; [4]): 0.2289 and 0.468 and 0.339 and 0.2027
- Relative SREBP1/2 protein levels: SREBP2/GAPDH (tissue protein levels; [4]): 0.3721 and 0.1919 and 0.1184 and 0.05422
- PGC1a/GAPDH density, mean (tissue protein levels; Figure 8c, DIO liver, group mean, N=3, Ctrl mean 1): 0.5994
- PCK1/GAPDH density, mean (tissue protein levels; Figure 8c, DIO liver, group mean, N=3, Ctrl mean 1.007): 0.6998
- Relative PGC1a/GAPDH density (tissue protein levels; [5]): 0.6916 and 0.563 and 0.5437
- relative PCK1/GAPDH density (tissue protein levels; [5]): 0.6644 and 0.7152 and 0.7198
- Relative LXRa/ACTIN, Mean Diff. (VEH vs. treated) (tissue protein levels; CRTC2KO): 0.1178
- Relative LXRa/ACTIN, Mean 2 (group mean) (tissue protein levels; CRTC2KO): 0.6864
- Relative LXRa/ACTIN (tissue protein levels; CT2KO): 0.6612 and 0.7951 and 0.6751 and 0.6141
- Relative LXRa/ACTIN, Mean Diff. (VEH vs. treated) (tissue protein levels; WT): 0.3705
- Relative LXRa/ACTIN, Mean 2 (group mean) (tissue protein levels; WT): 0.525
- Relative LXRa/ACTIN (tissue protein levels; WT): 0.572 and 0.5732 and 0.4815 and 0.4734
- Relative PCK1/TUBLIN in db/db liver, mean (tissue protein levels; [6]): 0.4585 folds
- Relative PGC1a/TUBLIN in db/db liver, mean (tissue protein levels; [6]): 0.2953 folds
- Relative proteins in the liver of db/db mice, PCK1/TUBLIN (tissue protein levels; [7]): 0.5197 folds and 0.4980 folds and 0.3577 folds
- Relative proteins in the liver of db/db mice, PGC1a/TUBLIN (tissue protein levels; [7]): 0.2725 folds and 0.3156 folds and 0.2979 folds
- relative protein levels in liver of DIO: LXRa/GAPDH (tissue protein levels; [8]): 0.741 and 0.777 and 0.8147
- relative protein levels in liver of DIO: PPARa/GAPDH (tissue protein levels; [8]): 0.924 and 0.9 and 0.98
- relative protein levels in liver of DIO: SREBP1/GAPDH (tissue protein levels; [8]): 0.391 and 0.515 and 0.283
- relative protein levels in liver of DIO: LXRa, group mean (Mean 1) (tissue protein levels; liver of DIO mice, mean of N=3): 0.7776
- relative protein levels in liver of DIO: PPARa, group mean (Mean 1) (tissue protein levels; liver of DIO mice, mean of N=3): 0.9347
- relative protein levels in liver of DIO: SREBP1, group mean (Mean 1) (tissue protein levels; liver of DIO mice, mean of N=3): 0.3963
- SREBP1/ACT IN CT2KO, Mean Diff. vs. VEH (tissue protein levels; [9]): -0.1371
- SREBP2/ACT IN CT2KO, Mean Diff. vs. VEH (tissue protein levels; [9]): -0.0958
- SREBP1/ACT IN CT2KO, mean (tissue protein levels; liver, CRTC2KO mice, group mean, N=4): 0.5503
- SREBP1/ACT IN CT2KO (related SREBP1 protein levels in CRTC2KO liver) (tissue protein levels; liver, CRTC2KO mice, individual replicates, Supp.fig.5a left): 0.5592 and 0.5689 and 0.5793 and 0.4937
- SREBP2/ACT IN CT2KO (related SREBP2 protein levels in CRTC2KO liver) (tissue protein levels; liver, CRTC2KO mice, individual replicates, Supp.fig.5a right): 0.6411 and 0.5673 and 0.6822 and 0.6938
- SREBP1/ACT IN WT, Mean Diff. vs. VEH (tissue protein levels; liver, WT mice, drug minus VEH): -0.2945
- SREBP2/ACT IN WT, Mean Diff. vs. VEH (tissue protein levels; liver, WT mice, drug minus VEH): -0.4593
- SREBP1/ACT IN WT, mean (tissue protein levels; [10]): 0.6687
- SREBP2/ACT IN WT, mean (tissue protein levels; [10]): 0.5653
- SREBP1/ACT IN WT (related SREBP1 protein levels in liver) (tissue protein levels; liver, WT mice, individual replicates, Supp.fig.5a left): 0.6865 and 0.5728 and 0.728 and 0.6877
- SREBP2/ACT IN WT (related SREBP2 protein levels in liver) (tissue protein levels; liver, WT mice, individual replicates, Supp.fig.5a right): 0.6071 and 0.5991 and 0.5115 and 0.5437
- phosphorylated AKT in liver, muscle, brown and white adipose tissues (tissue protein levels; treated obese mice): enhanced

Source: article PMC8752738, “A propolis-derived small molecule ameliorates metabolic syndrome in obese mice by targeting the CREB/CRTC2 transcriptional complex” (Nature Communications, 2022)
